# According to US7863449B2, “Modulators of muscarinic receptors” (Vertex Pharmaceuticals Incorporated, priority 2004, dated 2011):
# Structures can show the parent of a compound that is named as a salt.
# Assays:
# M1 muscarinic receptor = molecular target: T1, M1 muscarinic receptor (Homo sapiens, UniProt P11229); experiment: Functional mobilization of intracellular calcium (FLIPR), M1-CHO cells; assay type: cell-based; settings: for Emax: 100% efficacy is the maximum response obtained using Carbachol as a control; for M1 Activity: M1-CHO cells, FLIPR calcium mobilization
# T1 construct: expressed in transfected cells; host or cells: CHO (M1-CHO)
# T1 sequence (P11229 1-460): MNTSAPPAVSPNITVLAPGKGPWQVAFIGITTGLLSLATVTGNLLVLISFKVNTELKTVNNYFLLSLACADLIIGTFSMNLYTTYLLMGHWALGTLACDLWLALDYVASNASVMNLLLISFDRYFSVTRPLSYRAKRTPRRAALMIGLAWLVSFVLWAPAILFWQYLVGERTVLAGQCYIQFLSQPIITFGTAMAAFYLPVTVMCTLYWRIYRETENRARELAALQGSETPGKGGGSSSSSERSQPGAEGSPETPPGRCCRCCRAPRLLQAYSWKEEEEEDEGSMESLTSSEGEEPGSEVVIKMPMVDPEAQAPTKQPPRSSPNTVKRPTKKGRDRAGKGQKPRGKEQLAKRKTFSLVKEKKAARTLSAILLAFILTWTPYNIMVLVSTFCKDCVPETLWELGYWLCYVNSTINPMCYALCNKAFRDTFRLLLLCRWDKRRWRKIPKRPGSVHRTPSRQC
# Method in brief: (§1)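 CHO cells expressing M1 or M4, loaded with Fluo-3 AM or Calcium 3 dye with 1 mM probenecid, 0.5% DMSO final. Agonist mode: compound added directly; antagonist mode: 15 min pre-incubation (or co-application) before carbachol at EC80. Fluorescence recorded 60 s on FLIPR.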
# M4 muscarinic receptor = molecular target: T2, M4 muscarinic receptor (Homo sapiens, UniProt P08173); experiment: Functional mobilization of intracellular calcium (FLIPR), M4-CHO cells; assay type: cell-based; settings: for Emax: 100% efficacy is the maximum response obtained using Carbachol as a control; for M4 Activity: M4-CHO cells, FLIPR calcium mobilization
# T2 construct: expressed in transfected cells; host or cells: CHO (M4-CHO)
# T2 sequence (P08173 1-479): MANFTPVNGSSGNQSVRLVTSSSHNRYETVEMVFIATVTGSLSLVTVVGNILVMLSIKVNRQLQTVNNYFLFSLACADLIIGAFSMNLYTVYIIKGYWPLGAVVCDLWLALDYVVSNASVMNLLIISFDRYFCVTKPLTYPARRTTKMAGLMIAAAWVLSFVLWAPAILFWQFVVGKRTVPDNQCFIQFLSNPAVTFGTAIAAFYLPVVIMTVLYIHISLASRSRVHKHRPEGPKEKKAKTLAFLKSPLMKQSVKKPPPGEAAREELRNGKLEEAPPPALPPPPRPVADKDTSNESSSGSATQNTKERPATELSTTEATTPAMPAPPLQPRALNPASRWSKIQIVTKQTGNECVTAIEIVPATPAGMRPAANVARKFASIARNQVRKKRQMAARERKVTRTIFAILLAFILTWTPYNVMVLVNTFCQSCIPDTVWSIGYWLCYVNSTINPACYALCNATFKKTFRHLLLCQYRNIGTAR
# Method in brief: as §1
SMILES,Emax (M1 muscarinic receptor),M1 Activity (M1 muscarinic receptor),Emax (M4 muscarinic receptor),M4 Activity (M4 muscarinic receptor)
COc1cccc(CN2CCC3(CC2)CN(C(C)=O)Cc2ccccc23)c1 [compound 121],< 25%,+ (activity was measured to be greater than 5.0 μM),< 25%,+ (activity was measured to be greater than 5.0 μM)
CCCCC(=O)N1Cc2ccccc2C2(CCN(C3CCN(C(=O)OCC)CC3)CC2)C1 [compound 122],25 to 100%,+++ (activity was measured to be less than 1.0 μM),25 to 100%,+++ (activity was measured to be less than 1.0 μM)
CCOC(=O)N1CCC(N2CCC3(CC2)CN(C2CCCCC2C)Cc2ccccc23)CC1 (stereo not drawn) [compound 123],25 to 100%,+++ (activity was measured to be less than 1.0 μM),25 to 100%,+++ (activity was measured to be less than 1.0 μM)
CCOC(=O)N1CCC(CN2CCC3(CC2)CN(C(=O)c2cccs2)Cc2ccccc23)CC1 [compound 124],25 to 100%,+++ (activity was measured to be less than 1.0 μM),25 to 100%,+++ (activity was measured to be less than 1.0 μM)
CCCOC(=O)N1C2CCC1CC(N1CCC3(CC1)CN(S(=O)(=O)N(C)C)Cc1ccccc13)C2 (stereo not drawn) [compound 125],25 to 100%,+++ (activity was measured to be less than 1.0 μM),25 to 100%,+++ (activity was measured to be less than 1.0 μM)
CCOC(=O)N1C2CCC1CC(N1CCC3(CC1)CN(C(=O)CC(F)(F)F)Cc1ccccc13)C2 (stereo not drawn) [compound 126],25 to 100%,+++ (activity was measured to be less than 1.0 μM),25 to 100%,+++ (activity was measured to be less than 1.0 μM)
CCOC(=O)N1CCC(CN2CCC3(CC2)CN(C(=O)NC2CCCC2)Cc2ccccc23)CC1 [compound 127],25 to 100%,+++ (activity was measured to be less than 1.0 μM),25 to 100%,+++ (activity was measured to be less than 1.0 μM)
CCOC(=O)N1CCC(CN2CCC3(CC2)CN(C(=O)OC)Cc2ccccc23)CC1 [compound 128],25 to 100%,+++ (activity was measured to be less than 1.0 μM),25 to 100%,+++ (activity was measured to be less than 1.0 μM)
"CCCOC(=O)N1CCC(N2CCC3(CC2)CN(C(C)=O)Cc2ccccc23)CC1 [compound 129, Propyl 4-(2-acetyl-2,3-dihydro-1H-spiro[isoquinoline-4,4′-piperidine]-1′-yl)piperidine-1-carboxylate hydrochloride]",25 to 100%,+++ (activity was measured to be less than 1.0 μM),25 to 100%,+++ (activity was measured to be less than 1.0 μM)
CC(C)(C)CCN1CCC2(CC1)c1ccccc1C(=O)N2Cc1ccccc1 [compound 130],25 to 100%,++ (activity was measured to be from 1.0 μM to 5.0 μM),< 25%,+ (activity was measured to be greater than 5.0 μM)
CN(C)S(=O)(=O)N1Cc2ccccc2C2(CCN(C3CC4CCC(C3)N4C(=O)OC3CCC3)CC2)C1 (stereo not drawn) [compound 131],25 to 100%,+++ (activity was measured to be less than 1.0 μM),25 to 100%,+++ (activity was measured to be less than 1.0 μM)
CCOC(=O)N1C2CCC1CC(N1CCC3(CC1)CN(C(=O)Nc1ccc(F)cc1)Cc1ccccc13)C2 (stereo not drawn) [compound 132],25 to 100%,+++ (activity was measured to be less than 1.0 μM),25 to 100%,+++ (activity was measured to be less than 1.0 μM)
COC(=O)N1CCC(N2CCC3(CC2)CN(C(C)=O)Cc2ccccc23)CC1 [compound 133],25 to 100%,+++ (activity was measured to be less than 1.0 μM),25 to 100%,+++ (activity was measured to be less than 1.0 μM)
O=C1NC2(CCN(CCC3CCSCC3)CC2)c2ccccc21 [compound 134],< 25%,+ (activity was measured to be greater than 5.0 μM),< 25%,+ (activity was measured to be greater than 5.0 μM)
CCOC(=O)N1C2CCC1CC(N1CCC3(CC1)CN(c1cccc(Cl)c1)Cc1ccccc13)C2 (stereo not drawn) [compound 136],> 100%,+++ (activity was measured to be less than 1.0 μM),25 to 100%,+++ (activity was measured to be less than 1.0 μM)
CCOc1ccc(CN2CCC3(CC2)CN(C(C)=O)Cc2ccccc23)cc1 [compound 137],< 25%,+ (activity was measured to be greater than 5.0 μM),< 25%,+ (activity was measured to be greater than 5.0 μM)
COCCOC(=O)N1Cc2ccccc2C2(CCN(C3CC4CCC(C3)N4C(=O)O[C@@H]3CCOC3)CC2)C1 (stereo partly drawn) [compound 138],25 to 100%,+++ (activity was measured to be less than 1.0 μM),25 to 100%,+++ (activity was measured to be less than 1.0 μM)
CC(=O)N1Cc2ccccc2C2(CCN(Cc3ccoc3)CC2)C1 [compound 139],< 25%,+ (activity was measured to be greater than 5.0 μM),< 25%,+ (activity was measured to be greater than 5.0 μM)
COC(=O)N1C2CCC1CC(N1CCC3(CC1)CN(C(C)=O)Cc1ccccc13)C2 (stereo not drawn) [compound 140],25 to 100%,+++ (activity was measured to be less than 1.0 μM),25 to 100%,+++ (activity was measured to be less than 1.0 μM)
"CCOC(=O)N1C2CCC1CC(N1CCC3(CC1)CN(c1cccc(OC)c1)Cc1ccccc13)C2 (stereo not drawn) [compound 141, ethyl 3-(2-(3-methoxyphenyl)-2,3-dihydro-1H-spiro[isoquinoline-4,4′-piperidine]-1′-yl)-8-azabicyclo[3.2.1]octane-8-carboxylate]",25 to 100%,+++ (activity was measured to be less than 1.0 μM),25 to 100%,+++ (activity was measured to be less than 1.0 μM)
CC(=O)N1Cc2ccccc2C2(CCN(Cc3sccc3C)CC2)C1 [compound 142],< 25%,+ (activity was measured to be greater than 5.0 μM),< 25%,+ (activity was measured to be greater than 5.0 μM)
CCOC(=O)N1CCC(CN2CCC3(CC2)CN(C(=O)c2snnc2C)Cc2ccccc23)CC1 [compound 143],25 to 100%,+++ (activity was measured to be less than 1.0 μM),25 to 100%,+++ (activity was measured to be less than 1.0 μM)
CC(=O)c1ccc(CN2CCC3(CC2)CN(C(C)=O)Cc2ccccc23)cc1 [compound 144],25 to 100%,+ (activity was measured to be greater than 5.0 μM),< 25%,+ (activity was measured to be greater than 5.0 μM)
CCOC(=O)N1CCC(CN2CCC3(CC2)OC(=O)c2ccc(C)cc23)CC1 [compound 145],25 to 100%,+++ (activity was measured to be less than 1.0 μM),25 to 100%,+++ (activity was measured to be less than 1.0 μM)
